According to PubChem BioAssay AID248 (DTP/NCI, 2004):
“And” between values parts separate entries of the source, which are not always exact repeats. Equal entries are not always repeated. Inconclusive results and toxic doses are left out. Rule as the data show it: active = T/C of 150% or more; inactive = T/C below 125%.

Test system: L1210 leukemia ip in BDF1 mice, survival T/C
Assay: NCI In Vivo Anticancer Drug Screen. Data for tumor model L1210 Leukemia (intraperitoneal) in B6D2F1 (BDF1) mice
Details: endpoint: mean survival time, higher = longer survival
Outline: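 Transplanted-tumor mice were given test agent; controls received vehicle only. Survival readings from the two groups were divided (treated over control).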

[1] = dose: 100.0 mg/kg/injection, schedule: Q04DX003 (ip), vehicle: saline with Tween-80
[2] = dose: 200.0 mg/kg/injection, schedule: Q01DX009 (ip), vehicle: saline with Tween-80
[3] = dose: 200.0 mg/kg/injection, schedule: Q04DX003 (ip), vehicle: saline with Tween-80
[4] = dose: 400.0 mg/kg/injection, schedule: Q01DX009 (ip), vehicle: saline with Tween-80
[5] = dose: 400.0 mg/kg/injection, schedule: Q04DX003 (ip), vehicle: saline with Tween-80
[6] = dose: 100.0 mg/kg/injection, schedule: Q01DX009 (ip), vehicle: Klucel (hydroxypropylcellulose) (HPC)
[7] = dose: 200.0 mg/kg/injection, schedule: Q01DX009 (ip), vehicle: Klucel (hydroxypropylcellulose) (HPC)
[8] = dose: 400.0 mg/kg/injection, schedule: Q01DX009 (ip), vehicle: Klucel (hydroxypropylcellulose) (HPC)
[9] = dose: 100.0 mg/kg/injection, schedule: Q04DX003 (ip), vehicle: Klucel (hydroxypropylcellulose) (HPC)
[10] = dose: 200.0 mg/kg/injection, schedule: Q04DX003 (ip), vehicle: Klucel (hydroxypropylcellulose) (HPC)
[11] = dose: 400.0 mg/kg/injection, schedule: Q04DX003 (ip), vehicle: Klucel (hydroxypropylcellulose) (HPC)
[12] = dose: 50.0 mg/kg/injection, schedule: Q01DX009 (ip), vehicle: saline
[13] = dose: 100.0 mg/kg/injection, schedule: Q01DX009 (ip), vehicle: saline
[14] = dose: 12.5 mg/kg/injection, schedule: Q01DX009 (ip), vehicle: Klucel (hydroxypropylcellulose) (HPC)
[15] = dose: 25.0 mg/kg/injection, schedule: Q01DX009 (ip), vehicle: Klucel (hydroxypropylcellulose) (HPC)
[16] = dose: 25.0 mg/kg/injection, schedule: Q04DX003 (ip), vehicle: Klucel (hydroxypropylcellulose) (HPC)
[17] = dose: 100.0 mg/kg/injection, schedule: Q01DX001 (ip), vehicle: carboxymethylcellulose (CMC)
[18] = dose: 200.0 mg/kg/injection, schedule: Q01DX001 (ip), vehicle: carboxymethylcellulose (CMC)
[19] = dose: 400.0 mg/kg/injection, schedule: Q01DX001 (ip), vehicle: carboxymethylcellulose (CMC)
[20] = dose: 100.0 mg/kg/injection, schedule: Q04DX003 (ip), vehicle: saline
[21] = dose: 100.0 mg/kg/injection, schedule: Q01DX009 (ip), vehicle: saline with Tween-80

Measured: T/C

CCOC(=O)C1C(=O)NC(=O)CC1C (stereo not drawn)
inactive: [1] 98 % of control | [2] 100 % of control | [3] 96 % of control | [4] 101 % of control | [5] 104 % of control

Cc1ccc(S(=O)(=O)Nc2ccccc2O)cc1
inactive: dose: 100.0 mg/kg/injection, schedule: Q01DX001 (ip), vehicle: saline 102 % of control | dose: 200.0 mg/kg/injection, schedule: Q01DX001 (ip), vehicle: saline 98 % of control | dose: 400.0 mg/kg/injection, schedule: Q01DX001 (ip), vehicle: saline 98 % of control

CCCCCCCCCCCCCCCCCOC(=O)CCCCCCCCCCCCCCCCC
inactive: [1] 103 % of control | [3] 92 % of control | [5] 89 % of control

CCOC(=O)C/C(C(=O)O)=C(\C)c1ccc2ccccc2c1
inactive: dose: 100.0 mg/kg/injection, schedule: Q01DX001 (ip), vehicle: Klucel (hydroxypropylcellulose) (HPC) 101 % of control | [6] 95 % of control | dose: 200.0 mg/kg/injection, schedule: Q01DX001 (ip), vehicle: Klucel (hydroxypropylcellulose) (HPC) 95 % of control | [7] 100 % of control | dose: 400.0 mg/kg/injection, schedule: Q01DX001 (ip), vehicle: Klucel (hydroxypropylcellulose) (HPC) 95 % of control | [8] 86 % of control

Nc1nc2nc(N=Nc3ccc(S(=O)(=O)O)cc3)[nH]c2c(=O)[nH]1
inactive: [9] 93 % of control | [10] 93 % of control | [11] 93 % of control

CC[N+]([O-])(CC)CCNc1ccc(CO)c2sc3ccccc3c(=O)c12
inactive: [12] 92 % of control | [13] 121 % of control

C[N+](C)(C)C(=Nc1ccccc1)c1ccccc1
inactive: [14] 100 % of control | [15] 96 % of control | [16] 108 % of control | dose: 50.0 mg/kg/injection, schedule: Q01DX009 (ip), vehicle: Klucel (hydroxypropylcellulose) (HPC) 100 % of control and 105 % of control | dose: 50.0 mg/kg/injection, schedule: Q04DX003 (ip), vehicle: Klucel (hydroxypropylcellulose) (HPC) 94 % of control | [9] 100 % of control

O=C(O)c1cc(O)ccc1N=Nc1ccccc1
inactive: [17] 95 % of control | [18] 95 % of control | [19] 98 % of control

CC(C)=CCC/C(C)=C/CN
inactive: dose: 25.0 mg/kg/injection, schedule: Q04DX003 (ip), vehicle: saline 101 % of control | dose: 50.0 mg/kg/injection, schedule: Q04DX003 (ip), vehicle: saline 92 % of control | [13] 95 % of control | [20] 97 % of control

[O-][n+]1c(CN2CCCCC2)nc2cccc3c2c1-c1ccccc1-3
inactive: [21] 97 % of control | [1] 101 % of control | [2] 100 % of control | [3] 101 % of control | [4] 107 % of control | [5] 100 % of control

CC(Oc1nc2c(c(=O)n(C)c(=O)n2C)n1C)C1CCCC1 (stereo not drawn)
inactive: dose: 50.0 mg/kg/injection, schedule: Q01DX001 (ip), vehicle: other 103 % of control | dose: 100.0 mg/kg/injection, schedule: Q01DX001 (ip), vehicle: other 100 % of control

CC(C)(C)NC(C1=CC(C)(C)c2ccccc2C1=O)c1ccccc1 (stereo not drawn)
inactive: [6] 98 % of control | [9] 110 % of control | [7] 104 % of control | [10] 102 % of control | [8] 101 % of control | [11] 102 % of control

NCCCS
inactive: dose: 75.0 mg/kg/injection, schedule: Q01DX001 (ip), vehicle: saline 96 % of control | dose: 150.0 mg/kg/injection, schedule: Q01DX001 (ip), vehicle: saline 96 % of control

N#CCC(=O)NCc1ccncc1
inactive: [17] 95 % of control | dose: 100.0 mg/kg/injection, schedule: Q04DX003 (ip), vehicle: carboxymethylcellulose (CMC) 95 % of control | [18] 106 % of control | dose: 200.0 mg/kg/injection, schedule: Q04DX003 (ip), vehicle: carboxymethylcellulose (CMC) 96 % of control | [19] 108 % of control | dose: 400.0 mg/kg/injection, schedule: Q04DX003 (ip), vehicle: carboxymethylcellulose (CMC) 91 % of control

C[N+]1(Cc2ccccc2)CCC2(C(N)=O)CC1Cc1ccccc12 (stereo not drawn)
inactive: dose: 75.0 mg/kg/injection, schedule: Q01DX001 (ip), vehicle: other 105 % of control | dose: 150.0 mg/kg/injection, schedule: Q01DX001 (ip), vehicle: other 100 % of control | dose: 300.0 mg/kg/injection, schedule: Q01DX001 (ip), vehicle: other 93 % of control

CN(C)C(=S)Oc1c(Cl)cc(S(=O)(=O)F)cc1Cl
inactive: dose: 12.5 mg/kg/injection, schedule: Q04DX002 (ip), vehicle: Klucel (hydroxypropylcellulose) (HPC) 98 % of control | dose: 25.0 mg/kg/injection, schedule: Q04DX002 (ip), vehicle: Klucel (hydroxypropylcellulose) (HPC) 105 % of control | dose: 50.0 mg/kg/injection, schedule: Q04DX002 (ip), vehicle: Klucel (hydroxypropylcellulose) (HPC) 109 % of control | dose: 100.0 mg/kg/injection, schedule: Q04DX002 (ip), vehicle: Klucel (hydroxypropylcellulose) (HPC) 94 % of control | dose: 200.0 mg/kg/injection, schedule: Q04DX002 (ip), vehicle: Klucel (hydroxypropylcellulose) (HPC) 100 % of control

CC1(OC(=O)c2ccccc2)C2C=CC1C1C(=O)NC12 (stereo not drawn)
inactive: [6] 87 % of control | [9] 106 % of control | [7] 102 % of control | [10] 102 % of control | [8] 104 % of control | [11] 96 % of control

COc1cc(F)cc([N+](=O)[O-])c1
inactive: [17] 95 % of control | [18] 97 % of control | [19] 97 % of control

O=C(CS)CS
inactive: dose: 6.25 mg/kg/injection, schedule: Q01DX009 (ip), vehicle: water 102 % of control | dose: 12.5 mg/kg/injection, schedule: Q01DX009 (ip), vehicle: water 114 % of control | dose: 25.0 mg/kg/injection, schedule: Q01DX009 (ip), vehicle: water 98 % of control and 105 % of control | dose: 25.0 mg/kg/injection, schedule: Q04DX003 (ip), vehicle: water 102 % of control | dose: 50.0 mg/kg/injection, schedule: Q01DX009 (ip), vehicle: water 97 % of control and 103 % of control | dose: 50.0 mg/kg/injection, schedule: Q04DX003 (ip), vehicle: water 91 % of control | dose: 100.0 mg/kg/injection, schedule: Q04DX003 (ip), vehicle: water 97 % of control

CC(C)C(C(=O)O)N1C(=O)C2C3C=CC(C3)C2C1=O (stereo not drawn)
inactive: [1] 102 % of control | [3] 102 % of control | [5] 97 % of control

N#CSc1ccc(S(N)(=O)=O)cc1
inactive: dose: 6.25 mg/kg/injection, schedule: Q01DX009 (ip), vehicle: Klucel (hydroxypropylcellulose) (HPC) 94 % of control | [14] 92 % of control | dose: 12.5 mg/kg/injection, schedule: Q04DX003 (ip), vehicle: Klucel (hydroxypropylcellulose) (HPC) 100 % of control | [15] 106 % of control | [16] 105 % of control

O=C1OC(C(O)C(O)CO)C(O)C1O (stereo not drawn)
inactive: [12] 92 % of control | [13] 92 % of control | [20] 92 % of control | dose: 200.0 mg/kg/injection, schedule: Q01DX009 (ip), vehicle: saline 97 % of control | dose: 200.0 mg/kg/injection, schedule: Q04DX003 (ip), vehicle: saline 94 % of control | dose: 400.0 mg/kg/injection, schedule: Q04DX003 (ip), vehicle: saline 100 % of control

O=C(N/N=C\c1cccc2ccccc12)C(=O)N/N=C/c1cccc2ccccc12
inactive: [1] 88 % of control | [3] 88 % of control | [5] 91 % of control

S=c1nc(COc2ccccc2Cl)[nH][nH]1
inactive: dose: 50.0 mg/kg/injection, schedule: Q01DX009 (ip), vehicle: saline with Tween-80 106 % of control | [21] 100 % of control | [1] 98 % of control | [2] 97 % of control | [3] 102 % of control | [4] 98 % of control | [5] 96 % of control

[O-][n+]1ccccc1CCO
inactive: dose: 100.0 mg/kg/injection, schedule: Q04DX002 (ip), vehicle: saline 98 % of control | dose: 200.0 mg/kg/injection, schedule: Q04DX002 (ip), vehicle: saline 106 % of control | dose: 400.0 mg/kg/injection, schedule: Q04DX002 (ip), vehicle: saline 92 % of control
